This experiment deals with HLA-DQ2 (Homo sapiens, UniProt P01909+P01920). As to the kind of experiment: Inhibition of IL-2 secretion by TCR transductants stimulated by α-gliadin peptides presented by HLA-DQ2 expressing K562 cells (ELISA). It is filed as cell-based. Particulars: inhibition of IL-2 secretion at 200 uM; tested as trans racemate unless otherwise noted; lines naming several Examples = stereoisomer mixture of those Examples. Here is the method: Three commercially available analogues of the DQ2 binding molecules of the invention were tested for their ability to inhibit stimulation of T cell receptor (TCR) transductants in the presence of HLA-DQ2 expressing cells presenting known α-gliadin epitopes.
Using a previously published in vitro assay (Ostrov D, et al. Methyldopa blocks MHC class II binding to disease specific antigens in autoimmune diabetes. J Clin Invest. 2018:128 (5)) the ability of these DQ2 binding analogues to inhibit interleukin-2 (IL-2) secretion by TCR transductants stimulated by α-gliadin peptides presented by HLA-DQ2 was determined. Individual TCR transductants (recognizing a I-gliadin or a II-gliadin) were cultured with a gliadin peptide plus the small molecule analogues in the presence of HLA-DQ2 expressing K562 cells serving as antigen presenting cells. TCR transductants cultured with no gliadin peptide served as the negative control, and incubation with an anti-CD3 antibody (eBioscience; clone 2C11) served as a positive control for the TCR transductant. Secreted IL-2 in the culture supernatant was measured using a highly sensitive enzyme-linked immunosorbent assay (ELISA). […] Assays for effects on cell viability and for specificity, assayed in the absence of gliadin peptide or in the presence of a stimulating anti-CD3 antibody, were performed. Unless otherwise noted, the stereochemistry shown below represents the relative configuration. Further, unless otherwise noted, compounds were tested as the trans racemate.
On the technique in general: ELISA stands for enzyme-linked immunosorbent assay.

Each structure is given as a SMILES string.

Chain of HLA-DQ2 (P01920 33-261 limits assumed, other chains not shown): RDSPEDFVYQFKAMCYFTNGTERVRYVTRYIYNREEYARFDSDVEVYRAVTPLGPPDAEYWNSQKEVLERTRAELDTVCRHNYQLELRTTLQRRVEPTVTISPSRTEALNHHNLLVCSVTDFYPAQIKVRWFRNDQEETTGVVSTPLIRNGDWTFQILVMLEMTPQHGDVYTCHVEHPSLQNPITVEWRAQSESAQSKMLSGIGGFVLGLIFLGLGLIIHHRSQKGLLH

As to `Cc1cccc(SCC(=O)N2CCN(C(=O)[C@@H]3C[C@H]3c3ccccc3)CC2)c1` [Example 51], the “% Inh at 200 uM” value is “A (A=≥75%)”.
The same measure for `O=C(CSC1CCCCC1)N1CCN(C(=O)[C@@H]2C[C@H]2c2ccccc2)CC1` [Example 41, 2-(Cyclohexylthio)-1-(4-((1R, 2R)-2-phenylcyclopropane-1-carbonyl)piperazin-1-yl) ethan-1-one]: “B (B=50-74%)”; for `O=C(COc1cccc(O)c1)N1CCN(C(=O)[C@@H]2C[C@H]2c2ccccc2)CC1` [Example 96]: “B (B=50-74%)”; for `O=C(COC1CCCC1)N1CCN(C(=O)[C@@H]2C[C@H]2c2ccccc2)CC1` [Example 64]: “B (B=50-74%)”.
The same measure for `CSCC(=O)N1CCN(C(=O)[C@@H]2C[C@H]2c2ccccc2)CC1` (relative stereo) [Example 43, [2-(Methylthio)-1-(4-(trans-2-phenylcyclopropane-1-carbonyl)piperazin-1-yl)ethan-1-one]]: “C (C=25-49%)”; for `COc1ccc([C@H]2C[C@@H]2C(=O)N2CCN(C(=O)CSC3CCCC3)CC2)cc1` [Example 28]: “B (B=50-74%)”.
`CCCCOCC(=O)N1CCN(C(=O)[C@@H]2C[C@H]2c2ccccc2)CC1` (relative stereo) [Example 46, 2-Butoxy-1-(4-(trans-2-phenylcyclopropanecarbonyl)piperazin-1-yl) ethanone]: the “% Inh at 200 uM” value is given as “B (B=50-74%)”.
`O=C(CSc1ccc(Cl)cc1F)N1CCN(C(=O)[C@@H]2C[C@H]2c2ccccc2)CC1` (relative stereo) [Example 103, 2-((4-Chloro-2-fluorophenyl)thio)-1-(4-(trans-2-phenylcyclo-propane-1-carbonyl)piperazin-1-yl) ethan-1-one]: the “% Inh at 200 uM” value was “A (A=≥75%)”.
The value for `O=C(CSc1ccc(F)cc1)N1CCN(C(=O)C2CC2c2ccc3c(c2)OCO3)CC1` (stereo not shown) [Example 5] was “B (B=50-74%)”.
As for `CSc1ccccc1C(=O)N1CCN(C(=O)C2CC2c2ccc3c(c2)OCO3)CC1` (stereo not shown) [Example 19], the “% Inh at 200 uM” value is on record as “C (C=25-49%)”.
Turning to `O=C(C1CCCC1)N1CCN(C(=O)C2CC2c2ccc3c(c2)OCO3)CC1` (stereo not shown) [Example 25], the “% Inh at 200 uM” value was “A (A=≥75%)”.
The value for `Cc1ccc(SCC(=O)N2CCN(C(=O)[C@@H]3C[C@H]3c3ccccc3)CC2)c(Cl)c1` (relative stereo) [Example 84, 2-((2-Chloro-4-methylphenyl)thio)-1-(4-(trans-2-phenylcyclo-propanecarbonyl)piperazin-1-yl) ethanone] was “A (A=≥75%)”; that for `O=C(CSC1CCCC1)N1CCN(C(=O)[C@H]2C[C@@H]2c2ccccc2Cl)CC1` [Example 36] was “A (A=≥75%)”; that for `COCC(=O)N1CCN(C(=O)[C@@H]2C[C@H]2c2ccccc2)CC1` (relative stereo) [Example 42, [2-Methoxy-1-(4-(trans-2-phenylcyclopropane-1-carbonyl)piperazin-1-yl)ethan-1-one]] was “C (C=25-49%)”.
The same measure for `O=C(COc1ccc(O)cc1)N1CCN(C(=O)[C@@H]2C[C@H]2c2ccccc2)CC1` [Example 95]: “C (C=25-49%)”; for `N#Cc1cccc([C@H]2C[C@@H]2C(=O)N2CCN(C(=O)CSC3CCCC3)CC2)c1` [Example 31]: “C (C=25-49%)”.
The same measure for `O=C(CSC1CCCC1)N1CCN(C(=O)[C@@H]2C[C@H]2c2ccccc2F)CC1` [Example 33]: “B (B=50-74%)”; for `O=C(CN(C(=O)OCc1ccccc1)C1CCCC1)N1CCN(C(=O)[C@@H]2CC2c2ccccc2)CC1` (stereo partly shown) [Example 83]: “A (A=≥75%)”.
Consider `COc1cccc([C@H]2C[C@@H]2C(=O)N2CCN(C(=O)CSC3CCCC3)CC2)c1` [Example 27], for which the “% Inh at 200 uM” value was “B (B=50-74%)”.
The same measure for `CCOc1ccccc1C(=O)N1CCN(C(=O)C2CC2c2ccc3c(c2)OCO3)CC1` (stereo not shown) [Example 17]: “C (C=25-49%)”.
The value for `O=C(CSc1ccc(Cl)cc1)N1CCN(C(=O)[C@@H]2C[C@H]2c2ccccc2)CC1` (relative stereo) [Example 57, 2-((4-Chlorophenyl)thio)-1-(4-(trans-2-phenylcyclopropane-carbonyl)piperazin-1-yl) ethanone] was “B (B=50-74%)”; that for `Cc1cc(F)ccc1SCC(=O)N1CCN(C(=O)[C@@H]2C[C@H]2c2ccccc2)CC1` (relative stereo) [Example 61, 2-((4-Fluoro-2-methylphenyl)thio)-1-(4-(trans-2-phenylcyclopropanecarbonyl)-piperazin-1-yl)ethanone] was “B (B=50-74%)”; that for `COc1ccc(SCC(=O)N2CCN(C(=O)[C@@H]3C[C@H]3c3ccccc3)CC2)cc1` [Example 75] was “B (B=50-74%)”.
The same measure for `O=C(C[S+]([O-])C1CCCC1)N1CCN(C(=O)C2C[C@@H]2c2ccccc2)CC1` (stereo partly shown) [Example 80]: “B (B=50-74%)”; for `COC(=O)c1ccccc1OCC(=O)N1CCN(C(=O)[C@@H]2C[C@H]2c2ccccc2)CC1` [Example 100]: “C (C=25-49%)”.
On to `CN(C)c1cccc(C(=O)N2CCN(C(=O)C3CC3c3ccc4c(c3)OCO4)CC2)c1` (stereo not shown) [Example 20], for which the “% Inh at 200 uM” value is “B (B=50-74%)”.
The value for `O=C(CSC1CCCC1)N1CCN(C(=O)[C@H]2C[C@@H]2c2cccc(Cl)c2)CC1` [Example 32] was “B (B=50-74%)”; that for `Cc1cc(Cl)ccc1SCC(=O)N1CCN(C(=O)[C@@H]2C[C@H]2c2ccccc2)CC1` (relative stereo) [Example 72, 2-((4-Chloro-2-methylphenyl)thio)-1-(4-(trans-2-phenylcyclo-propanecarbonyl)piperazin-1-yl) ethanone] was “A (A=≥75%)”; that for `O=C(c1ccccc1F)N1CCN(C(=O)C2CC2c2ccc3c(c2)OCO3)CC1` (stereo not shown) [Example 22] was “B (B=50-74%)”.
The value for `O=C(CSc1cccc(O)c1)N1CCN(C(=O)[C@@H]2C[C@H]2c2ccccc2)CC1` [Example 87] was “C (C=25-49%)”; that for `O=C(COc1ccc(F)cc1)N1CCN(C(=O)C2CC2c2ccc3c(c2)OCO3)CC1` (stereo not shown) [Example 6] was “A (A=≥75%)”; that for `Cc1ccc(C)c(SCC(=O)N2CCN(C(=O)[C@@H]3C[C@H]3c3ccccc3)CC2)c1` (relative stereo) [Example 55, 2-((2,5-Dimethylphenyl)thio)-1-(4-(trans-2-phenylcyclo-propanecarbonyl)piperazin-1-yl)-ethanone] was “B (B=50-74%)”.
The value for `O=C(CSC1CCCC1)N1CCN(C(=O)[C@H]2C[C@@H]2c2ccccc2)CC1` [Example 13, 2-(Cyclopentylthio)-1-(4-((1S,2S)-2-phenylcyclopropanecarbonyl)piperazin-1-yl)ethanone] was “A (A=≥75%)”; that for `NC(=O)c1ccccc1SCC(=O)N1CCN(C(=O)[C@@H]2C[C@H]2c2ccccc2)CC1` [Example 73] was “C (C=25-49%)”.
`O=C(CSC1CCCC1)N1CCN(C(=O)C2CC2c2cccs2)CC1` (stereo not shown) [Example 14]: the “% Inh at 200 uM” value was “A (A=≥75%)”.
For `COc1ccccc1SCC(=O)N1CCN(C(=O)[C@@H]2C[C@H]2c2ccccc2)CC1` [Example 63], the “% Inh at 200 uM” value is recorded as “B (B=50-74%)”.
With `Cc1ccc(SCC(=O)N2CCN(C(=O)[C@@H]3C[C@H]3c3ccccc3)CC2)c(C)c1` [Example 70], the “% Inh at 200 uM” value was “A (A=≥75%)”.
